The text below walks through data of patent US20080051393A1, “Novel cannabinoids and methods of use” (Eastern Virginia Medical School, priority 2006, published 2008).

What is called ED50 is the dose at which the effect has come halfway, by size or by number of responders. A word on the Ki: it is the equilibrium dissociation constant of an inhibitor or competing ligand from its target. The low end stands for higher affinity, the high end for lower affinity.

Data set [1] relates to ICR mice. The data set can be described thus: Tetrad model: relative immobility (RI), ring-immobility test. In kind it is in vivo. The note with it: Mus musculus, iv, 40 min; i.v., ring immobility 40 min after injection; read-out: R.I. ED50. An excerpt:
(§1) ICR Mice and Materials. Male ICR mice (Harlan Laboratories, Indianapolis, Ind.) weighing between 24 to 30 g were used in all experiments. Mice were maintained on a 14:10-hr light/dark cycle with food and water available ad lib. All test groups consisted of 6 to 12 mice. Analogs dissolved in a vehicle consisting of ethanol, emulphor and saline in a ratio of 1:1:18. All chemicals for receptor binding studies were purchased from Sigma (St. Louis, Mo.) except the following: Dulbeco's modified Eagle's medium (DMEM) from GIBCO BRL (Grand Island, N.Y.), Whatman GF/B glass fiber filters from Fischer Scientific (Pittsburg, Pa.), fetal calf serum (FCS) and fetal bovine serum (FBS) from HyClone Laboratories (Logan, Utah) and Budget-Solve scintillation fluid from RPI Corp. (Mount Prospect, Ill.).
Rectal temperature was measured 30 min after the i.v. injection. The change in rectal temperature (Δ° C.) following analog administration was calculated for each animal. Relative immobility (catalepsy) was measured 40 min after the i.v. injection by the ring-immobility test. Mice were placed on a ring 5.5 cm in diameter attached to a stand at a height of 16 cm. The amount of time the mice spent motionless on the ring during the 5-minute procedure was measured, with the criteria of immobility being defined as the absence of all voluntary movements, including whisker movement, but excluding respiration. The percent immobility was calculated as: % immobility=[time immobile (sec)]/[length of session (sec)]×100. Mice that fell from the ring or actively jumped were allowed five attempts. After the fifth escape these mice were removed from the ring and not included in the calculations. Data were collected from 6-12 mice for each condition tested.
(§2) Data analysis. Based on data obtained from numerous previous in vivo studies with cannabinoids, maximal cannabinoid effects in each in vivo pharmacological procedure were estimated as follows: 90% inhibition of spontaneous activity, 100% MPE in the tail flick procedure, and −6° C. change in rectal temperature. Means and standard error (S.E.) were calculated for % MPE, number of photocell disruptions, % ring immobility and Δ° C. Analysis of variance (ANOVA) was used to determine significant differences between control and treatment groups followed by Dunnett's t-test post-hoc analysis. Statistical analysis was performed using StatView, version 5.0 (SAS Institute, Cary, N.C.). Significance was defined as a “p”<0.05. ED50's were defined as the dose at which half maximal effect occurred. For drugs that produced one or more cannabinoid effect, ED50's were calculated separately using least-squares linear regression on the linear part of the dose-effect curve for each measure in the mouse tetrad, plotted against log10 transformation of the dose.

Data set [2] concerns the target T1, human CB1 receptor (Homo sapiens, UniProt P21554).
T1 construct: expressed in transfected cells; host or cells: HEK-293
The data set can be described thus: CB1 receptor binding, [3H]CP55,940 displacement. The note with it: HEK-293 membranes, means ± SE, N = 3. As to the method:
(§3) Membrane Preparations. HEK-293 cells stably expressing the human CB1 receptor were cultured in DMEM with 10% FBS and Chinese Hamster Ovary (CHO) cells stably expressing the human CB2 receptor were cultured in DMEM with 10% FCS. Cells were harvested by replacement of the media with cold phosphate-buffered saline containing 1 mM EDTA followed by centrifugation at 1000×g for 5 min at 4° C. The pellet was resuspended in 50 mM Tris-HCl containing 320 mM sucrose, 2 mM EDTA and 5 mM MgCl2 (pH 7.4) (centrifugation buffer), then centrifuged at 1000×g for 10 min at 4° C. and the resulting supernatant was saved. This process was repeated twice. The supernatant fractions were combined and centrifuged at 40,000×g for 30 min at 4° C. The resulting P2 pellet was resuspended in assay buffer (50 mM Tris-HCl (pH 7.4), 3 mM MgCl2, 0.2 mM EGTA, and 100 mM NaCl) and protein was measured. Membranes were stored at −80° C. until use.
(§4) Receptor Binding. Membrane homogenates (50 μg) were incubated with 0.5 nM [^3H]CP55,940 in the presence of varying concentrations (1 nM-10 μM) of test compounds in 0.5 ml of buffer containing BSA (5 mg/ml). Non-specific binding was measured in the presence of 1 μM CP55,940. The assay was incubated at 30° C. for 1 hr and terminated by addition of ice cold 50 mM Tris-HCl+BSA (1 mg/ml) (pH 7.4) followed by filtration under vacuum through Whatman GF/B glass fiber filters with 3 washes with cold Tris buffer. Bound radioactivity was determined by liquid scintillation spectrophotometry at 50% efficiency after extraction by shaking samples for 30-60 min with Budget-Solve scintillation fluid. Data are reported as the mean ±SEM of three experiments, each performed in triplicate. Ki values were calculated from displacement data using EBDA (Equilibrium Binding Data Analysis; BIOSOFT, Milltown, N.J.).

Data set [3] deals with ICR mice. The data set can be described thus: Tetrad model: antinociception in the tail-flick procedure (TF). In kind it is in vivo. Particulars: Mus musculus, iv, 20 min; i.v., tail-flick 20 min after injection; read-out: T.F. ED50.
Excerpt: as §1
(§5) Behavioral Evaluations. All animals were allowed to acclimate to the observation room overnight. Behavioral effects were assessed in the tetrad model to measure potency in decreasing spontaneous activity (SA), antinociception [tail-flick procedure, TF], rectal temperature (RT) and relative immobility (RI) catalepsy. The baselines for tail-flick latency (2-4 sec) and rectal temperature were determined prior to i.v. injections. Baseline rectal temperatures were measured using a telethermometer and a thermometer probe inserted to 25 mm (Yellow Springs Instrument Co., Yellow Springs, Ohio). The mice treated i.v. with an analog were placed in individual photocell activity chambers 5 min later. Spontaneous activity wasp monitored for 10 min in a Digiscan Animal Activity Monitor (Omnitech Electronice, Inc., Columbus, Ohio) as measured by the number of interruptions of 16 photocell beams per chamber. The total number of beam interruptions during the 10-min period was determined and presented as total counts. The mice were then assessed at 20 min following the i.v. injection for antinociception using the tail-flick reaction time to a heat stimulus. A 10-sec maximum latency was used in order to avoid tail injury. The results are presented as % MPE and are calculated as follows: % MPE=[(test latency-control latency)/(10 sec−control latency)]×100.
as §2

The test system of data set [4] is ICR mice. The data set can be described thus: Tetrad model: inhibition of spontaneous activity (SA). Type of data set: in vivo. The note with it: Mus musculus, iv, spontaneous activity 5-15 min after injection; read-out: S.A. ED50.
Excerpt: as §1, §5, §2

For data set [5], the target named is T2, human CB2 receptor (Homo sapiens, UniProt P34972).
T2 construct: expressed in transfected cells; host or cells: CHO
T2 sequence (P34972 whole entry): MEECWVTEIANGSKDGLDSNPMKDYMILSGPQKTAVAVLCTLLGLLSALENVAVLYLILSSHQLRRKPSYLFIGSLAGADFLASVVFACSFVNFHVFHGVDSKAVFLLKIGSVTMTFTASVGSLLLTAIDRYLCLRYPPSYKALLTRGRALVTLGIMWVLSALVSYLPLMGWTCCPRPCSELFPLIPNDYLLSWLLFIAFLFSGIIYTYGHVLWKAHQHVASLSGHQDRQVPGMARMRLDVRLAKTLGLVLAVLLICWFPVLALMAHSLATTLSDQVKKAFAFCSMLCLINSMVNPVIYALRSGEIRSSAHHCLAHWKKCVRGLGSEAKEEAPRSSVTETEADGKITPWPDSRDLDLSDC
The data set can be described thus: CB2 receptor binding, [3H]CP55,940 displacement. The note with it: CHO membranes, means ± SE, N = 3. As to the method:
as §3, §4

The test system of data set [6] is IOP in a rat glaucoma model. The data set can be described thus: Combination therapy: IOP in a rat glaucoma model. Type of data set: in vivo, Sprague Dawley rats. The source says:
Rat Glaucoma Model. Compared to acute studies, a chronic rat model of glaucoma was generated. The rats were made glaucomatous by ligating three vortex veins (Hosseini, A. et al. (2006) Chronic topical administration of WIN-55-212-2 maintinas a reduction in IOP in a rat glaucoma model without adverse effects. Exp. Eye Res. 82(5):753-9). More specifically, ocular hypertension was induced in Sprague-Dawley rats by ligating 3 of 4 episcleral veins of the right eye using 9.0 nylon sutures under anesthesia with 3 mg/Kg acepromazine and 20 mg/Kg ketamine. Within 6 wk, IOP increased by at least 5 mm Hg in the operated eye. This intervention produced at least a 30% increase in IOP in the operated eye and lasted for up to 60 weeks. During this time, a 30% loss of retinal function was documented by ERG. […] Thus, the model accurately mimics the progressive damage that occurs in patients with glaucoma.
Measurements of Intraocular Pressure. IOP elevation was measured under mild sedation using a calibrated Goldmann tonometer modified for rats. Three determinations were averaged for each eye. To account for diurnal variation, all IOP's were measured between 11 am and 1 pm during the daily trough period.
Combination Therapy. Since cannabinoids and timolol, which are both known to reduce IOP, have different mechanisms of action, there is potential for a synergistic effect. The combination of timolol and a synthetic cannabinoid (WIN55 212-2, O-1812, or O-2545) to reduce IOP in a chronic rat model of ocular hypertension was examined. Surgical ligation of three of the four episcleral veins in one eye of Sprague Dawley rats caused a long lasting (>44 week) increase in IOP. IOP was measured by Goldmann tonometry at baseline (−30), 0, 30, 60 and 120 min, as was heart rate and blood pressure. For combination therapy, after baseline IOP measurement, timolol 0.5% was applied topically followed 30 min later by WIN55 212-2 1.0%, O-1812 1.0%, or O-2545 1.0%. In another experiment, O-1812 1.0% and O-2545 1.0% were administered simultaneously. An analysis for ocular irritation was performed by slit lamp examination (SLE) at baseline and 150 min.

Data set [7] concerns retinal ganglionic cells (RGC). The data set can be described thus: Rat NMDA model: retinal flat mounts, RGC count. Type of data set: in vivo. Particulars: NMDA treatment only. The method, then:
Rat NMDA Model. To mimic glaucomatous damage to the retina without a potentially confounding effect on IOP, retinal damage was induced by NMDA in a rat model. Following baseline measurements, e.g. IOP, ERG, slit lamp, fundus photography, heart rate and blood pressure, N-methyl D-aspartate (NMDA, 2 μl of 10 mM) was injected intravitreally to induce RGC damage. […] For positive identification, a hand scanner was used each time the rat was examined. This was necessary since the examiners will be masked as to treatment group. Treatment groups consisted of either NMDA only (control), O-1812 (0.1%) or O-2545 (0.1%), O-1812 (0.1%)+SR-141716 (2 mM), O-2545 (0.1%)+SR-141716 (2 mM), O-1812 (0.1%)+SR-144258 (2 mM) and O-2545 (0.1%)+SR-144258 (2 mM). All experiments were conducted in accordance with the policies of the Institutional Animal Care and Use Committee and the ARVO policy on use of animals in experiments. A minimum of two baseline ERG measurements was recorded 1 wk prior, 1 wk and 2 wk post injection. At the end of each experiment, rats were sacrificed and their eyes were preserved for histological assessment of effects on the retina and optic nerve.
Histology. For retinal flat mounts, retinas were dissected from formalin fixed whole eyes, mounted on superfrost glass slides, stained with hematoxylin and eosin and digitally photographed. For analysis, the retina was divided into four quadrants. A minimum of five 50 μm^2 sections per quadrant were used to count cell number. The cell sections were selected to be equidistant from the optic cup for all quadrants. For optic nerve experiments, the optic nerve was dissected at the margin of the optic disk and embedded in cryo media. Sections of 10 μm thickness were cut and mounted on superfrost glass slides and stained with hematoxylin and eosin. The slides were digitally photographed.

T1 sequence (P21554 whole entry): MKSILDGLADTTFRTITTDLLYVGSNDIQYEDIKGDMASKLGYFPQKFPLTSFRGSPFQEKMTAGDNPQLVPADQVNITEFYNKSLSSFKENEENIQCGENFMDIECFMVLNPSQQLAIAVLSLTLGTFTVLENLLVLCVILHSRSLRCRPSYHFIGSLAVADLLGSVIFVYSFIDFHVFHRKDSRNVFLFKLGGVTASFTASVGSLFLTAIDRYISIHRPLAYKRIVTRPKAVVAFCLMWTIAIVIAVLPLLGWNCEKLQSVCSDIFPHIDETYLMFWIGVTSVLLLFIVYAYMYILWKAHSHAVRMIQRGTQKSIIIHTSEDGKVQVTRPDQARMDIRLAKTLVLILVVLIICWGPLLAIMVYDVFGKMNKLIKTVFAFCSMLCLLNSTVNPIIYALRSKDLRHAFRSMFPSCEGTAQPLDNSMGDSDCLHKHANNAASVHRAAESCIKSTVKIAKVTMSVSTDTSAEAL

For `C[C@H](CO)NC(=O)CCC/C=C\C/C=C\C/C=C\C/C=C\C(C)(C)CCCCn1cccn1` [Compound O-2954], the ED50 in data set [1] worked out at 0.57 mg/kg; in data set [3] it was 0.19 mg/kg; in data set [4], 0.14 mg/kg. Moreover, the inhibitory constant (Ki) in data set [2] turned out to be 127 ± 2.84 nM; in data set [5] it was 301 ± 35.6 nM.

As to `C[C@H](CO)NC(=O)CCC/C=C\C/C=C\C/C=C\C/C=C\C(C)(C)CCCCN1CCCCC1` [Compound O-4386], the ED50 in data set [1] was found to be 0.7 mg/kg; in data set [3], 0.55 mg/kg; in data set [4] it was 0.79 mg/kg. The values for the inhibition constant Ki in data set [2] and in data set [5] were 92.8 ± 2.2 nM and 226 ± 24 nM, respectively.

Turning to `C[C@H](CO)NC(=O)CCC/C=C\C/C=C\C/C=C\C/C=C\C(C)(C)CCCCN1CCOCC1` [Compound O-4316], the ED50 in data set [1] came out at 0.03 mg/kg; in data set [3] it was 0.04 mg/kg; in data set [4] it was 0.11 mg/kg. The results for the Ki in data set [2] and in data set [5] were 3.88 ± 0.22 nM and 22.4 ± 0.43 nM, respectively.

As for `C[C@H](CO)NC(=O)CCC/C=C\C/C=C\C/C=C\C/C=C\C(C)(C)CCCCN1CCCC1` [Compound O-4388], the ED50 is 0.84 mg/kg in data set [1], 0.38 mg/kg in data set [3] and 0.42 mg/kg in data set [4]. Further, the Ki in data set [2] stood at 99.4 ± 5.9 nM; in data set [5] it was 404 ± 39 nM.

As to `C[C@H](CO)NC(=O)CCC/C=C\C/C=C\C/C=C\C/C=C\C(C)(C)CCCCn1ccnc1` [Compound O-4368], the median effective dose (ED50) is 0.25 mg/kg in data set [1], 0.29 mg/kg in data set [3] and 0.68 mg/kg in data set [4]. The Ki was found to be 90.5 ± 5 nM in data set [2] and 153 ± 5 nM in data set [5].

In the case of `C[C@H](CO)NC(=O)CCC/C=C\C/C=C\C/C=C\C/C=C\C(C)(C)CCCCn1cncn1` [Compound O-2955], the ED50 turned out to be 2.21 mg/kg in data set [1], 1.94 mg/kg in data set [3] and 2.03 mg/kg in data set [4]. In addition, the results for the Ki in data set [2] and in data set [5] were 298 ± 33.9 nM and 215 ± 40.5 nM, respectively.

Regarding `CC(C)(C)NC[C@H](O)COc1nsnc1N1CCOCC1` [Timolol, timolol], the “IOP at 120 min (% Baseline)” value in data set [6] (0.5% topical alone, 120 min) is reported as 91.5 ± 10.2 % Baseline. For the same compound, the “Time for which IOP was significantly decreased” value in data set [6] (timolol alone, prior experiments in this model) was found to be 30 min.

Consider `CN[C@H](CC(=O)O)C(=O)O` [NMDA, N-methyl D-aspartate, reference compound], for which the “Reduction of RGC cell density” value in data set [7] is 49%.
